Data taken from US9493542B2, “Methods of using ERBB2 conjugate peptides” (Augusta University Research Institute, Inc., priority 2013, dated 2016).

How the values were obtained:
[1] = molecular target: T1, Erbin-ErbB2 interaction (Homo sapiens, UniProt Q96RT1); assay: Co-immunoprecipitation of Flag-ErbB2 with Myc-Erbin from lysates incubated with peptide; assay type: binding; conditions: in vitro; lysates with Flag-ErbB2 or Myc-Erbin, anti-Myc precipitation; compared to control peptide
T1 construct: HEK293 cells were transfected with Flag-ErbB2 alone or together with full length Erbin; expressed in transfected cells; host or cells: Transfected cells
T1 sequence (Q96RT1 whole entry): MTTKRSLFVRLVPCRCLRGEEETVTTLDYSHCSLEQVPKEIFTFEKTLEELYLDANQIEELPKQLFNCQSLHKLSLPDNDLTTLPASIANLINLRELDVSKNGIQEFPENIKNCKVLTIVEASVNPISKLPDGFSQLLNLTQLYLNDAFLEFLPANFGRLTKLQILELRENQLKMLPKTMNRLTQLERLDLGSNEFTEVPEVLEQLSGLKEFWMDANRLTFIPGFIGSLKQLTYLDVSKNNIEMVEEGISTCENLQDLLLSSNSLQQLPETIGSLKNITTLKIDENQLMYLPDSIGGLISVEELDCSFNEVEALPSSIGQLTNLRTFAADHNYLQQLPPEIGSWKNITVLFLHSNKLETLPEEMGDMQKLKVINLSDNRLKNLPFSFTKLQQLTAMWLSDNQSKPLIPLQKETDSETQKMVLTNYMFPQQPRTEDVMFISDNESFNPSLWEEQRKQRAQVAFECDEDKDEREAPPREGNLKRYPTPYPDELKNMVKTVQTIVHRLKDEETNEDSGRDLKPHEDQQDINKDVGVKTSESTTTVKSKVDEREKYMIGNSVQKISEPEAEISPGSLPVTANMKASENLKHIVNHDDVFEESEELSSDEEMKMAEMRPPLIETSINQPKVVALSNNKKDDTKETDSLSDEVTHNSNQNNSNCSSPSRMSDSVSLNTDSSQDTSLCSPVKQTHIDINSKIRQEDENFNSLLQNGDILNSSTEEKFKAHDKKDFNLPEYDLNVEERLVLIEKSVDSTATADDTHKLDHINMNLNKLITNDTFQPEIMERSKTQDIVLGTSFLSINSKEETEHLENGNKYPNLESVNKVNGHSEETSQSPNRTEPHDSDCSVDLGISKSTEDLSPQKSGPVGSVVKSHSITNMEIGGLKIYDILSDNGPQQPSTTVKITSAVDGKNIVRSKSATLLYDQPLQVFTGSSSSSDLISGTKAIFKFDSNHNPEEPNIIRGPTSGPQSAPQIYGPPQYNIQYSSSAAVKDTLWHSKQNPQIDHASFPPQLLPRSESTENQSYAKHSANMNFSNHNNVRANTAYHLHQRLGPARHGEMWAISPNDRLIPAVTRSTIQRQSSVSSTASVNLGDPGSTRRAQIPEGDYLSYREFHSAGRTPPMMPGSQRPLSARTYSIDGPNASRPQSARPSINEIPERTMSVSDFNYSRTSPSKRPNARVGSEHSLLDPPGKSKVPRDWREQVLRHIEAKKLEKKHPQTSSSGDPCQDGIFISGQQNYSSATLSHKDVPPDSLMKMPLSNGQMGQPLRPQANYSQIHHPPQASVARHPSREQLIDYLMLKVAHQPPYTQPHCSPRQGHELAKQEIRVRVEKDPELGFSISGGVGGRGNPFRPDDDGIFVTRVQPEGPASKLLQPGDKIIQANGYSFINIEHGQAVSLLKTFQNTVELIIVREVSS
From the text: FIGS. 5A-5H show the requirement of the Erbin-ErbB2 interaction for ErbB2 stabilization and autophosphorylation and ErbB2-dependent proliferation of breast cancer cells. (A)-(B) Quantitative analysis of pErbB2 and ErbB2 levels in western blots showing decreased ErbB2 expression and autophosphorylation by Erbin-PDZ domain. HEK293 cells were transfected with Flag-ErbB2 with increasing doses of Myc-Erbin-PDZ. Cell lysates were blotted with antibodies against ErbB2, pErbB2 and Myc. (C) Quantitative analysis of western blot data showing the disruption of the Erbin-ErbB2 interaction by B2tail. Lysates of transfected cells expressing Flag-ErbB2 or Myc-Erbin were incubated with control peptide (Ctrl) or B2tail. The Erbin complex was precipitated using anti-Myc antibody and probed for ErbB2. n=3, *P<0.05, compared to Ctrl. […] Cells were treated with 20 μM TAT-Ctrl or TAT-B2tail peptide for 24 hours and analyzed by MTS assay. […]
For immunoprecipitation, cells were lysed in lysis buffer (50 mM Tris-HCl, pH 7.4, 150 mM NaCl, 1% NP-40, 0.5% Triton-X-100, 1 mM PMSF, 1 mM EDTA, 5 mM NaF, 2 mM Na3VO4, and protease inhibitor cocktails). […] Immunoreactive bands were visualized using enhanced chemiluminescence (Pierce), scanned with an Epson 1680 scanner, and analyzed with Image J. […]

[2] = test system: ErbB2; assay: ErbB2 stability and pErbB2 in SKBR3 cells after cycloheximide (Western blot); assay type: cell-based; parameters: dose or concentration left out as unconfirmed; conditions: TAT-B2tail for 1 hour prior to CHX, compared to TAT-Ctrl
[3] = test system: SKBR3 cells; assay: MTS proliferation assay, SKBR3 cells; assay type: cell-based; conditions: 20 μM peptide, 24 hours
From the text: (§1) FIGS. 5A-5H show the requirement of the Erbin-ErbB2 interaction for ErbB2 stabilization and autophosphorylation and ErbB2-dependent proliferation of breast cancer cells. (A)-(B) Quantitative analysis of pErbB2 and ErbB2 levels in western blots showing decreased ErbB2 expression and autophosphorylation by Erbin-PDZ domain. HEK293 cells were transfected with Flag-ErbB2 with increasing doses of Myc-Erbin-PDZ. Cell lysates were blotted with antibodies against ErbB2, pErbB2 and Myc. (C) Quantitative analysis of western blot data showing the disruption of the Erbin-ErbB2 interaction by B2tail. Lysates of transfected cells expressing Flag-ErbB2 or Myc-Erbin were incubated with control peptide (Ctrl) or B2tail. The Erbin complex was precipitated using anti-Myc antibody and probed for ErbB2. n=3, *P<0.05, compared to Ctrl. […] SKBR3 cells were incubated with 20 μM TAT-Ctrl or TAT-B2tail, for 1 hour prior to analysis of ErbB2 stability. n=3, *P<0.05, **P<0.01, compared to TAT-Ctrl. […] Cells were treated with 20 μM TAT-Ctrl or TAT-B2tail peptide for 24 hours and analyzed by MTS assay. […] (F) PDZ deletion inhibited tumorigenesis in MMTV-neu mice on incipient congenic FVB background. […]
(§2) Cell proliferation was measured by MTS assay, as described previously (Zhang, S., et al., Nature medicine, 17, 461-469, 2011). […] Optical density was measured at wavelength of 490 nm.

[4] = test system: BT474 cells; assay: MTS proliferation assay, BT474 cells; assay type: cell-based, human; conditions: 20 μM peptide, 24 hours
From the text: as §1, §2

[5] = test system: Human breast BT474 cancer cells; assay: BT474 breast tumor growth in fat pads of nude mice, intratumoral peptide injection; assay type: in vivo; conditions: 25 μl 5 mM peptide injected into tumors twice a week, one month, versus TAT-Ctrl
Description: FIG. 7 is a microscopy image of a breast cancer tumor treated with Tat-ErbB2tail. TAT-ErbB2tail peptide inhibits breast tumor growth in nude mice. Human breast BT474 cancer cells (100 μl, 3.0×10^5 cells in 50% Matri-gel) were injected into fat pads of both sides of female mice. Resulting tumors were injected 2 weeks later with control (TAT-ctrl, left) or B2tail (TAT-B2tail, right) peptide (25 u.l, 5 mM), twice a week. Shown were representative images before injection (A, A′) and one month after injection (B, B′).
The results identify the ErbB2-Erbin interaction as a therapeutic target for fighting ErbB2-positive breast cancers. To test this, B2tail was tested for the ability to inhibit tumor growth in mice. Human breast BT474 cancer cells (100 ul, 3.0×10^5 cells in 50% Matri-gel) were injected into fat pads of both sides of virgin, female mice. Resulting tumors were injected 2 weeks later with control (TAT-Ctrl) or B2tail (TAT-B2tail) peptide (25 μl, 5 mM), twice a week[[.]].

[6] = test system: HSP90; assay: HSP90 inhibition by 17-AAG: ErbB2 and Erbin levels and ErbB2 complex; assay type: cell-based
From the text: Erbin regulation of ErbB2 stability was investigated. […] Intriguingly, the effect of 17-AAG could not be blocked by Erbin overexpression (data not shown), indicating Erbin acts upstream or at level of HSP90. ErbB2, HSP90, and Erbin can form a ternary complex necessary for ErbB2 stability. HSP90 as well as Erbin was detectable in the complex of ErbB2 and Erbin interacted HSP90 (data not shown). […] Conversely, Erbin knockdown inhibited the HSP90-ErbB2 interaction (data not shown).

[7] = molecular target: T2, ErbB2 (Homo sapiens, UniProt P04626); assay: Coexpression of Erbin PDZ domain with Flag-ErbB2 in HEK293 cells (Western blot); assay type: cell-based; conditions: Flag-ErbB2 with increasing doses of Myc-Erbin-PDZ
T2 construct: expressed in transfected cells; host or cells: HEK293
From the text: as §1, with “background. Erbin^ΔC/ΔC mice were backcrossed for 5 generations with FVB wild types and then crossed with FVB-congenic MMTV-neu.” for “background.”

[8] = 17-AAG treatment (data not shown)

With PTAENPEYLGLDVPV [B2tail] the “disruption of the Erbin-ErbB2 interaction” value [1] was “able to disrupt the Erbin-ErbB2 interaction”.

In the case of “YGRKKRRQRRR-G-PTAENPEYLGLDVPV [TAT-B2tail]”, the “ErbB2 reduction (stability) after CHX” value [2] is reported as “ErbB2 reduction was faster”, the pErbB2 levels [2] is reported as “pErbB2 levels were reduced” and the decrease of proliferation [3] is reported as “about 40%”. The decrease of proliferation [4] was about 35% and the “size of breast tumors” value [5] was “appeared to decrease”.

`C=CCNC1=C2C[C@@H](C)C[C@H](OC)[C@H](O)[C@@H](C)/C=C(\C)[C@H](OC(N)=O)[C@@H](OC)/C=C\C=C(/C)C(=O)NC(=CC1=O)C2=O` [17-AAG] was tested, and the ErbB2 degradation [6, 8] was “resulted in ErbB2 degradation”, the Erbin levels [6, 8] was “no effect” and the “ErbB2 level after brief treatment” value ([6]; 17-AAG, 1 hour) was “without altering ErbB2 level”. For the same molecule, the “amount of Erbin in the ErbB2 complex” value ([6]; 17-AAG, 1 hour) was “reduced”.

B1: PDZ domain of Erbin: Erbin PDZ domain, starts at amino acid 1318 of Erbin, expressed as Myc-tagged construct in HEK293 cells (protein)
chain: AKQEIRVRVEKDPELGFSISGGVGGRGNPFRPDDDGIFVTRVQPEGPASKLLQPGDKIIQANGYSFINIEHGQAVSLLKTFQNTVELIIVREV
modifications: Myc tag; PDZ domain
notes: Erbin PDZ domain, starts at amino acid 1318 of Erbin, expressed as Myc-tagged construct in HEK293 cells
For B1, the “ErbB2 phosphorylation (pErbB2)” value [7] was “reduced” and the “levels of ErbB2” value [7] was “reduced”.
